Experimental findings from patent US20030109549A1 (published 2003) are described below.

Counter-ions that a name gives are not always drawn.

`Clc1nc2ccccc2n1C1CCN(C2(c3ccccc3)CCCCCC2)CC1` (as salt: HCl): the melting point was in the range of 153 to 156 °C.
The result for `c1ccc(C2(N3CCC(n4c(N5CCCCC5)nc5ccccc54)CC3)CCCCCC2)cc1` (as salt: HCl) reads 177 to 180 °C.
Consider `c1ccc(CN2CCN(c3nc4ccccc4n3C3CCN(C4(c5ccccc5)CCCCCC4)CC3)CC2)cc1` (as salt: HCl), for which the melting point fell in the range of 139 to 143 °C.
The compound `c1ccc(C2(N3CCC(n4c(N5CCNCC5)nc5ccccc54)CC3)CCCCCC2)cc1` (as salt: HCl) showed a melting point of 159 to 163 °C.
As for `CCCCCNc1nc2ccccc2n1C1CCN(C2(c3ccccc3)CCCCCC2)CC1` (as salt: HCl), the figure is 156 to 159 °C.
The result for `NCCNc1nc2ccccc2n1C1CCN(C2(c3ccccc3)CCCCCC2)CC1` (as salt: HCl) reads 228 to 232 °C.
The result for `c1ccc(C2(N3CCC(n4c(NC5CCNCC5)nc5ccccc54)CC3)CCCCCC2)cc1` (as salt: HCl) reads 231 to 235 °C; that for `CNC(C)Nc1nc2ccccc2n1C1CCN(C2(c3ccccc3)CCCCCC2)CC1` (stereo not shown) (as salt: HCl), 173 to 177 °C.
`CN(C)CCNc1nc2ccccc2n1C1CCN(C2(c3ccccc3)CCCCCC2)CC1` (as salt: HCl) gave a melting point of 188 to 192 °C.
The result for `c1ccc(N2CCN(c3nc4ccccc4n3C3CCN(C4(c5ccccc5)CCCCCC4)CC3)CC2)cc1` (as salt: HCl) reads 188 to 192 °C; that for `CS(=O)(=O)c1nc2ccccc2n1C1CCN(C2(c3ccccc3)CCCCCC2)CC1` (as salt: HCl), 155 to 158 °C.
The result for `O=C1CCN(c2nc3ccccc3n2C2CCN(C3(c4ccccc4)CCCCCC3)CC2)CC1` (as salt: HCl) reads 168 to 172 °C; that for `OC1CCN(c2nc3ccccc3n2C2CCN(C3(c4ccccc4)CCCCCC3)CC2)CC1` (as salt: HCl), 208 to 212 °C.
The result for `NC1CCN(c2nc3ccccc3n2C2CCN(C3(c4ccccc4)CCCCCC3)CC2)CC1` (as salt: HCl) reads 225 to 228 °C; that for `c1ccc(C2(N3CCC(n4c(OC5CCNCC5)nc5ccccc54)CC3)CCCCCC2)cc1` (as salt: HCl), 114 to 118 °C.
On to `CSc1nc2ccccc2n1C1CCN(C2(c3ccccc3)CCCCCC2)CC1` (as salt: HCl), for which the melting point lay in the range of 168 to 171 °C.
As for `NCCOc1nc2ccccc2n1C1CCN(C2(c3ccccc3)CCCCCC2)CC1` (as salt: HCl), the figure is 180 to 184 °C.
The result for `c1ccc(C2(N3CCC(n4c(N5CCCC5)nc5ccccc54)CC3)CCCCCC2)cc1` (as salt: HCl) reads 178 to 181 °C; that for `NCC(=O)Nc1nc2ccccc2n1C1CCN(C2(c3ccccc3)CCCCCCC2)CC1` (as salt: HCl), 217 to 221 °C.
As for `c1ccc(C2(N3CCC(n4c(N5CCOCC5)nc5ccccc54)CC3)CCCCCC2)cc1` (as salt: HCl), the figure is 172 to 176 °C; as for `ON=C1CCN(c2nc3ccccc3n2C2CCN(C3(c4ccccc4)CCCCCC3)CC2)CC1` (as salt: fumaric acid salt), 201 to 204 °C.
As to `N=C(N)NCCNc1nc2ccccc2n1C1CCN(C2(c3ccccc3)CCCCCC2)CC1` (as salt: salt), the melting point was in the range of 215 to 218 °C.
